ChEMBL document CHEMBL1201862, “PubChem BioAssay data set” (2004)
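Growth conditions: 96-well plates. Treatment: test compound, 48 hours, 5 concentrations. Analysis: linear interpolation between bracketing concentrations; unreached endpoints set to highest concentration. GI50 marks 50% less growth.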 Active and inactive are the calls of the source. Cut-off read from the data, not from the text of the source: active = GI50 up to about 1.1 µM and inactive = higher.

What was measured:
Test in all cases: NCI anticancer screen, dose series, 48 h
A498 = system: A498
ACHN = system: ACHN
CAKI-1 = system: CAKI-1
HCC 2998 = system: HCC 2998
HCT-116 = system: HCT-116
Hs-578T = system: Hs-578T
MDA-MB-231 = system: MDA-MB-231
MDA-N = system: MDA-N
NCI-H226 = system: NCI-H226
NCI-H460 = system: NCI-H460
OVCAR-4 = system: OVCAR-4
OVCAR-5 = system: OVCAR-5
SF-268 = system: SF-268
SF-539 = system: SF-539
SK-OV-3 = system: SK-OV-3
SR = system: SR
TK-10 = system: TK-10
UACC-257 = system: UACC-257
UACC-62 = system: UACC-62
MOLT-4 = system: MOLT-4

SMILES	GI50 (A498)	GI50 (ACHN)	GI50 (CAKI-1)	GI50 (HCC 2998)	GI50 (HCT-116)	GI50 (Hs-578T)	GI50 (MDA-MB-231)	GI50 (MDA-N)	GI50 (NCI-H226)	GI50 (NCI-H460)	GI50 (OVCAR-4)	GI50 (OVCAR-5)	GI50 (SF-268)	GI50 (SF-539)	GI50 (SK-OV-3)	GI50 (SR)	GI50 (TK-10)	GI50 (UACC-257)	GI50 (UACC-62)	GI50 (MOLT-4)
O=C(c1cc(Cl)cc(Cl)c1)N(C(=S)OC12CC3CC(CC(C3)C1)C2)c1ccccc1	34.9 µM (inactive)	33.2 µM (inactive)	42.1 µM (inactive)	33.8 µM (inactive)	28.1 µM (inactive)	48.9 µM (inactive)	38.6 µM (inactive)	31.8 µM (inactive)	35.5 µM (inactive)	35.3 µM (inactive)	46.8 µM (inactive)	46.3 µM (inactive)	52.8 µM (inactive)	40 µM (inactive)	32.5 µM (inactive)	43.1 µM (inactive)	53.3 µM (inactive)	43.3 µM (inactive)	32.6 µM (inactive)	–
CCOc1ccc(/C=C2\N=C(c3ccc([N+](=O)[O-])cc3)OC2=O)cc1	> 100 µM (inactive)	> 100 µM (inactive)	> 100 µM (inactive)	> 100 µM (inactive)	> 100 µM (inactive)	> 100 µM (inactive)	> 100 µM (inactive)	> 100 µM (inactive)	> 100 µM (inactive)	> 100 µM (inactive)	> 100 µM (inactive)	> 100 µM (inactive)	> 100 µM (inactive)	> 100 µM (inactive)	> 100 µM (inactive)	> 100 µM (inactive)	> 100 µM (inactive)	> 100 µM (inactive)	> 100 µM (inactive)	> 100 µM (inactive)
C/C(=N\NC(=[Se])N1CCN(c2ccccn2)CC1)c1ccccn1	4.51 µM (inactive)	2.37 µM (inactive)	2.65 µM (inactive)	11.1 µM (inactive)	0.01 µM (active)	0.188 µM (active)	0.01 µM (active)	2.99 µM (inactive)	0.912 µM (active)	0.0269 µM (active)	0.0933 µM (active)	5.97 µM (inactive)	3.21 µM (inactive)	2.51 µM (inactive)	2.75 µM (inactive)	0.00622 µM (active)	7.38 µM (inactive)	0.01 µM (active)	1.41 µM (inactive)	2.58 µM (inactive)
Cc1cc(C)c(C[C@H]2COC(=O)[C@]2(O)Cc2c(C)cc(C)cc2C)c(C)c1	14.6 µM (inactive)	18.2 µM (inactive)	18.6 µM (inactive)	13.7 µM (inactive)	20.7 µM (inactive)	17.7 µM (inactive)	16.7 µM (inactive)	19.8 µM (inactive)	17 µM (inactive)	16.8 µM (inactive)	12.9 µM (inactive)	17.1 µM (inactive)	14.9 µM (inactive)	23.9 µM (inactive)	17.9 µM (inactive)	41.5 µM (inactive)	21.6 µM (inactive)	17.7 µM (inactive)	13.7 µM (inactive)	26.7 µM (inactive)
O=C1CSC(c2cccs2)N1c1nc2cc3sc(N4C(=O)CSC4c4cccs4)nc3cc2s1 (centres undefined)	> 50 µM (inactive)	> 50 µM (inactive)	47.4 µM (inactive)	> 50 µM (inactive)	38.4 µM (inactive)	> 50 µM (inactive)	> 50 µM (inactive)	> 50 µM (inactive)	6.38 µM (inactive)	3.04 µM (inactive)	> 50 µM (inactive)	> 50 µM (inactive)	> 50 µM (inactive)	0.753 µM (active)	> 50 µM (inactive)	5.45 µM (inactive)	> 50 µM (inactive)	> 50 µM (inactive)	> 50 µM (inactive)	6.4 µM (inactive)
O=c1nc(N2CCNCC2)oc2cc(Cl)oc(=O)c12	20.8 µM (inactive)	6.87 µM (inactive)	2.59 µM (inactive)	11.1 µM (inactive)	2.43 µM (inactive)	1.94 µM (inactive)	12.1 µM (inactive)	2.2 µM (inactive)	15.4 µM (inactive)	6.98 µM (inactive)	5.45 µM (inactive)	15.5 µM (inactive)	3.89 µM (inactive)	2.25 µM (inactive)	12.3 µM (inactive)	1.65 µM (inactive)	9.02 µM (inactive)	7.57 µM (inactive)	7.67 µM (inactive)	1.76 µM (inactive)
O=C(Nc1cccc(-c2cn3ccccc3n2)c1)c1ccncc1	76 µM (inactive)	41.1 µM (inactive)	31.3 µM (inactive)	56.2 µM (inactive)	33.1 µM (inactive)	38.1 µM (inactive)	32 µM (inactive)	31.3 µM (inactive)	56.5 µM (inactive)	16.1 µM (inactive)	34.7 µM (inactive)	> 100 µM (inactive)	41.4 µM (inactive)	50.6 µM (inactive)	70.8 µM (inactive)	24 µM (inactive)	56.9 µM (inactive)	29.9 µM (inactive)	20.9 µM (inactive)	21.7 µM (inactive)
